From patent publication US20080039531A1, “Compositions, and kits comprising targeted aldehyde or acetal protease inhibitor compounds for treating muscle disorders” (priority 2005, published 2008)
“Also recorded” adds a separate entry of the source. Like-named read-outs stand apart in the source and are kept apart here.

Experiments:
[1] = Monkey study, oral leupeptin: hematology, blood clotting, serum biochemistry; format: in vivo; conditions: monkeys, oral leupeptin 3, 6, 12, 18 mg/kg twice daily for 6 months after nerve repair
Method: Subsequent to the above studies another series of experiments were performed on the monkeys to assess another route of leupeptin administration in these animals (8). In this regard, oral delivery of leupeptin, after median nerve transection and epineural nerve repair, was studied for its potential benefits to neuromuscular recovery. […] When plasma leupeptin concentrations were 3 mg or greater, morphologic and functional motor recovery were facilitated after nerve repair.
Hematology/blood chemistry. Blood was drawn from the femoral vein at 1, 3, 4, 5, and 7 months postoperatively. Complete blood counts, clotting parameters, and serum chemistries in control animals and in animals after oral leupeptin administration at 3, 6, 12, and 18 mg/kg were quantified. Values were determined for hemoglobin, hematocrit, WBC, RBC, MCV, MCH, MCHC, differential (polymorphonuclear leukocytes, lymphocytes, monocytes, eosinophils, basophils), platelets, prothrombin time, partial thromboplastin time, glucose, urea nitrogen, creatinine, total protein, albumin, total bilirubin, alkaline phosphatase, SGPT, SGOT, lactic dehydrogenase, cholesterol, calcium, phosphorus, sodium, potassium, chloride, A/G, BUN/creatinine, globulin, amylase.

Calpain [2] = test: Monkey study, intramuscular leupeptin: muscle calpain activities; format: in vivo, Cebus apella; conditions: right, nerve-repaired opponens and abductor muscles, 12 and 24 weeks
Excerpt: In order to test the hypothesis that in vivo inhibition of calpains by leupeptin can facilitate neuromuscular recovery by inhibiting denervation atrophy of the skeletal-muscle target after complete peripheral nerve transection and delayed nerve repair (7), a monkey study (Cebus apella) was undertaken. This median-nerve model was chosen to approximate human anatomic and regenerative aspects.

MDX mice = test: MDX mouse study: myofiber diameter after intramuscular leupeptin; format: in vivo; conditions: for Myofiber diameter, Anterior tibialis / Myofiber diameter, Diaphragm / Myofiber diameter, Gastrocnemius / Myofiber diameter, Soleus: mdx mice, ± SD
Method: (§1) It is well documented that as, observed in DMD and BMD, dystrophin is dysfunctional/absent in the murine MDX model of muscular dystrophy. […] A series of studies to test the ability of the calpain inhibitor, leupeptin, to delay and/or prevent features of calcium-induced damage to dystrophic myofibers was initiated. Control C57BL/10SNJ mice were treated with intramuscular injections of normal saline. The MDX mice were treated intramuscularly with either normal saline or 12 mg/kg leupeptin or 18 mg/kg leupeptin twice daily. All injections were delivered in the hind-limbs in various locations to avoid muscle damage due to repeated injections at the same location. The gastrocnemius, soleus, anterior tibialis, and diaphragm muscles were examined in all animals.

calpain [3] = test: Calpain activities of muscle samples from leupeptin-treated MDX mice; format: in vivo, mouse; conditions: for Calpain activities of muscle samples, Anterior tibialis / Calpain activities of muscle samples, Diaphragm / Calpain activities of muscle samples, Gastrocnemius / Calpain activities of muscle samples, Soleus: mdx mice, average of 3 determinations
Method: as §1
To further examine whether the beneficial/protective action of leupeptin was associated with a change in calpain activity, the activity of the enzyme was assessed in the muscle various muscles taken from the control, and MDX […]±treatment with leupeptin.

[4] = system: rat hind limb muscle (sciatic nerve denervation); conditions: for % loss (muscle atrophy due to denervation): rat
Method: Denervation was carried out on one of the hind limb sciatic nerves of the rat. Denervation was allowed to proceed for 7 days. Either leupeptin or CLA was injected 2×/day in forelimb muscle for seven days. The non-denervated hind limb was used as the control. Leupeptin and/or CLA were injected into alternating forelimb muscles for a period of seven days after which, animals were sacrificed, muscles excised and weighed.

Calpain [5] = test: Monkey study, oral leupeptin: muscle calpain activities; format: in vivo, monkeys
Excerpt: However, the trend in activities, as was expected, when comparing control, left muscle to right, denervated, leupeptin-treated muscle, was an overall decrease in calpain activity after leupeptin treatment. The mean decrease in calpain activity in the right opponens pollicis muscles of leupeptin treated animals was 30%. The mean decrease in calpain activity in the right abductor pollicis muscles of leupeptin-treated animals was 24%.

calpain [6] = conditions: rats, IP, muscle isolated after 2 hours
Method: An initial series of toxicology experiments was performed in rats to assess the effect of CLA at various doses, on animal viability. […] A series of experiments to examine the ability of CLA vs. leupeptin to decrease activated calpain levels and inhibit muscle wasting was conducted. In the experiment shown in Table 4, rats were utilized to assess the effect of IP injection of either leupeptin or CLA into the hind limb muscle on their ability to inhibit calpain activity. To this end, four rats were injected IP with either leupeptin or CLA. After 2 hours, the muscle was isolated, homogenized, and assayed for remaining calpain activity by the standard assay.

[7] = 12 mg/kg leupeptin intramuscularly twice daily
[8] = 18 mg/kg leupeptin intramuscularly twice daily

## CC(=O)N[C@@H](CC(C)C)C(=O)N[C@@H](CC(C)C)C(=O)N[C@H](C=O)CCCNC(=N)N [Leupeptin]
[1]
  hematology, blood clotting and serum biochemistry: no adverse effects; also recorded: no significant differences
Calpain [2]
  mean increase of calpain activities in control animals compared to leupeptin treated animals: 50%
MDX mice; anterior tibialis, 12 mg/kg
  increase in myofiber diameter vs untreated MDX muscle: 35%
MDX mice; anterior tibialis, 18 mg/kg
  increase in myofiber diameter vs untreated MDX muscle: 36%
MDX mice; diaphragm, 12 mg/kg
  increase in myofiber diameter vs untreated MDX muscle: 25%
MDX mice; diaphragm, 18 mg/kg
  increase in myofiber diameter vs untreated MDX muscle: 25%
MDX mice; gastrocnemius, 12 mg/kg
  increase in myofiber diameter vs untreated MDX muscle: 37%
MDX mice; gastrocnemius, 18 mg/kg
  increase in myofiber diameter vs untreated MDX muscle: 39%
MDX mice; [7]
  Myofiber diameter, Anterior tibialis: 37.5 ± 2.8 µm
  Myofiber diameter, Diaphragm: 21.8 ± 0.9 µm
  Myofiber diameter, Gastrocnemius: 32.9 ± 2.6 µm
  Myofiber diameter, Soleus: 24.7 ± 1.8 µm
MDX mice; [8]
  Myofiber diameter, Anterior tibialis: 38.3 ± 1.3 µm
  Myofiber diameter, Diaphragm: 21.7 ± 1.8 µm
  Myofiber diameter, Gastrocnemius: 34 ± 2.7 µm
  Myofiber diameter, Soleus: 25.5 ± 2.3 µm
MDX mice; soleus, 12 mg/kg
  increase in myofiber diameter vs untreated MDX muscle: 22%
MDX mice; soleus, 18 mg/kg
  increase in myofiber diameter vs untreated MDX muscle: 25%
Calpain [3]; anterior tibialis, 12 mg/kg
  decrease in calpain activity vs untreated MDX muscles: 50%
Calpain [3]; anterior tibialis, 18 mg/kg
  decrease in calpain activity vs untreated MDX muscles: 77%
Calpain [3]; diaphragm, 12 mg/kg
  decrease in calpain activity vs untreated MDX muscles: 51%
Calpain [3]; diaphragm, 18 mg/kg
  decrease in calpain activity vs untreated MDX muscles: 71%
Calpain [3]; gastrocnemius, 12 mg/kg
  decrease in calpain activity vs untreated MDX muscles: 84%
Calpain [3]; gastrocnemius, 18 mg/kg
  decrease in calpain activity vs untreated MDX muscles: 60%
Calpain [3]; 12 mg/kg leupeptin
  Calpain activities of muscle samples, Anterior tibialis: 155 ± 16 cpm/200-μg protein
  Calpain activities of muscle samples, Diaphragm: 26 ± 4 cpm/200-μg protein
  Calpain activities of muscle samples, Gastrocnemius: 27 ± 7 cpm/200-μg protein
  Calpain activities of muscle samples, Soleus: 187 ± 16 cpm/200-μg protein
Calpain [3]; 18 mg/kg leupeptin
  Calpain activities of muscle samples, Anterior tibialis: 71 ± 11 cpm/200-μg protein
  Calpain activities of muscle samples, Diaphragm: 17 ± 5 cpm/200-μg protein
  Calpain activities of muscle samples, Gastrocnemius: 67 ± 8 cpm/200-μg protein
  Calpain activities of muscle samples, Soleus: 102 ± 9 cpm/200-μg protein
Calpain [3]; soleus, 12 mg/kg
  decrease in calpain activity vs untreated MDX muscles: 44%
Calpain [3]; soleus, 18 mg/kg
  decrease in calpain activity vs untreated MDX muscles: 70%
[4]; 1.5 mg/kg injected 2x/day for seven days
  % loss (muscle atrophy due to denervation): 30.9 ± 4%
[4]; 15.0 mg/kg injected 2x/day for seven days
  % loss (muscle atrophy due to denervation): 2.6 ± 0.3%
[4]; rats, seven days of injections
  health / toxic effect in denervation study: remained healthy without any apparent negative toxic effect
Calpain [5]; right abductor pollicis muscles of oral leupeptin-treated monkeys
  mean decrease in calpain activity: 24%
Calpain [5]; right opponens pollicis muscles of oral leupeptin treated monkeys
  mean decrease in calpain activity: 30%
Calpain [6]; 75 μmoles
  % inhibition of muscle calpain activity: 20%
Calpain [6]
  % inhibition/μmole: 0.26%
  Fold (effectiveness per μmole relative to leupeptin): 1
